# Patent US20150099709A1, “GHRELIN RECEPTOR AGONISTS FOR THE TREATMENT OF ACHLORHYDRIA” (RaQualia Pharma Inc., priority 2012, published 2015)
# System: intra-gastric pH
# Test: Measurement of intra-gastric pH in dogs (gastric fistula, pH electrode)
# Format: in vivo, dog
# Conditions: for change of intra-gastric pH value after dosing / time for which the low intra-gastric pH is maintained: dogs, orally, dose not given
# Experimental: Male beagle dogs are used. A metallic cannula is placed in on the left side of the abdomen at the lowest part of the distal gastric corpus region near the greater curvature by a surgical operation. Intra-gastric pH is measured continuously by a flexible pH electrode inserted via the gastric fistula. Vehicle or drugs are administered orally to the dogs.
# Compound A 3 mg/kg is orally administered to dogs in a similar way described in Example 1. Intra-gastric pH value is between 2 and 7 in the vehicle-treated conscious dogs.
smiles,measurement,setting,value
"C[C@@H]1CN[C@@H](C2CC2)C(=O)N(C)[C@H](C)C(=O)N[C@H](Cc2ccc(F)cc2)C(=O)NCCCc2ccccc2O1 [Compound E, (2R,5S,8R,11R)-5-cyclopropyl-11-(4-fluorobenzyl)-2,7,8-trimethyl-4,5,7,8,10,11,13,14,15,16-decahydro-2H-benzo[q][1,4,7,10,13]oxatetraazacyclooctadecine-6,9,12(3H)-trione]",change of intra-gastric pH value after dosing,,decreases soon just after dosing
same,time for which the low intra-gastric pH is maintained,,more than 3 hours
"CN(C(=O)/C=C/CC1(N)CCC1)[C@H](Cc1ccc(-c2ccccc2)cc1)C(=O)N(C)[C@H](Cc1ccccc1)C(=O)N1CCC(O)CC1 [Compound D, (E)-N—((R)-3-([1,1′-biphenyl]-4-yl)-1-(((R)-1-(4-hydroxypiperidin-1-yl)-1-oxo-3-phenylpropan-2-yl)(methyl)amino)-1-oxopropan-2-yl)-4-(1-aminocyclobutyl)-N-methylbut-2-enamide]",change of intra-gastric pH value after dosing,,decreases soon just after dosing
same,time for which the low intra-gastric pH is maintained,,more than 3 hours
CN(C)N(C)C(=O)[C@@]1(Cc2ccccc2)CCCN(C(=O)[C@@H](Cc2c[nH]c3ccccc23)NC(=O)C(C)(C)N)C1 [Compound C],change of intra-gastric pH value after dosing,,decreases soon just after dosing
same,time for which the low intra-gastric pH is maintained,,more than 3 hours
"CC(C)(N)C(=O)N[C@H](COCc1ccc(F)cc1F)C(=O)N1CCC2=NN(CC(F)(F)F)C(=O)[C@]2(Cc2ccccn2)C1 [Compound B, 2-amino-N-[1-(R)-(2,4-difluoro-benzyloxymethyl)-2-oxo-2-(3-oxo-3a-(R)-pyridin-2-ylmethyl-2-(2,2,2-trifluoro-ethyl)-2,3,3a,4,6,7-hexahydropyrazolo[4,3-c]pyridin-5-yl)-ethyl]-2-methyl-propionamide]",change of intra-gastric pH value after dosing,,decreases soon just after dosing
same,time for which the low intra-gastric pH is maintained,,more than 3 hours
"CN1N=C2CCN(C(=O)[C@@H](COCc3ccccc3)NC(=O)C(C)(C)N)C[C@@]2(Cc2ccccc2)C1=O [Compound A, 2-amino-N-[2-(3a-(R)-benzyl-2-methyl-3-oxo-2,3,3a,4,6,7-hexahydropyrazolo[4,3-c]pyridin-5-yl)-1-(R)-benzyloxymethyl-2-oxo-ethyl]isobutyramide]",time for which the low intra-gastric pH value is maintained,"male beagle dogs, 3 mg/kg orally",more than 3 hours
same,intra-gastric pH value maintained after administration,"male beagle dogs, 3 mg/kg orally, both dogs",below 2.5
same,change of intra-gastric pH value after administration,"male beagle dogs, 3 mg/kg orally, conscious, FIG. 2",rapidly decreases after the administration
